Reference: the CheMixHub viscosity set

Test: xn = mol fraction of the nth substance listed

NC1CCCCC1 + CCCCOC(C)=O
298.15 K, 101 kPa
Details | viscosity [mPa·s]
x1 = 0.1151 | 0.6149
x1 = 0.2265 | 0.6836
x1 = 0.3342 | 0.8301
x1 = 0.4385 | 1.032
x1 = 0.5394 | 1.253
x1 = 0.6373 | 1.455
x1 = 0.7321 | 1.618
x1 = 0.8241 | 1.734
x1 = 0.9134 | 1.779

O=C1CCCC1 + CCCCOC(C)=O
viscosity [mPa·s], 101 kPa
Details | x2 = 0.0703 | x2 = 0.1461 | x2 = 0.2264 | x2 = 0.3112 | x2 = 0.4036 | x2 = 0.4995 | x2 = 0.6079 | x2 = 0.7264 | x2 = 0.8541
298.15 K | 1.044 | 1 | 0.957 | 0.913 | 0.867 | 0.826 | 0.785 | 0.749 | 0.714
303.15 K | 0.961 | 0.921 | 0.881 | 0.84 | 0.797 | 0.758 | 0.72 | 0.686 | 0.654
308.15 K | 0.892 | 0.856 | 0.82 | 0.783 | 0.746 | 0.71 | 0.676 | 0.645 | 0.618
313.15 K | 0.835 | 0.8 | 0.766 | 0.732 | 0.697 | 0.662 | 0.63 | 0.6 | 0.575

ClC=C(Cl)Cl + CCCCOCCO
viscosity [mPa·s], 101.33 kPa
Details | x1 = 0.1147 | x1 = 0.2158 | x1 = 0.3119 | x1 = 0.4264 | x1 = 0.5157 | x1 = 0.6108 | x1 = 0.687 | x1 = 0.8076 | x1 = 0.9043
303.15 K | 2.11 | 1.821 | 1.568 | 1.297 | 1.111 | 0.937 | 0.817 | 0.671 | 0.582
313.15 K | 1.646 | 1.451 | 1.271 | 1.074 | 0.934 | 0.806 | 0.718 | 0.608 | 0.537

NC1CCCCC1 + CCCCOCCO
298.15 K, 101 kPa
Details | viscosity [mPa·s]
x1 = 0.1169 | 2.872
x1 = 0.2295 | 3.006
x1 = 0.338 | 3.059
x1 = 0.4427 | 3.069
x1 = 0.5437 | 3.011
x1 = 0.6412 | 2.872
x1 = 0.7355 | 2.697
x1 = 0.8266 | 2.447
x1 = 0.9147 | 2.09

ClC=C(Cl)Cl + CCCCOCCOCCO
298.15 K, 101.33 kPa
Details | viscosity [mPa·s]
x1 = 0.0171 | 5.12
x2 = 0.0067 | 0.539
x2 = 0.0185 | 0.56
x2 = 0.0282 | 0.577
x2 = 0.0462 | 0.609
x2 = 0.0623 | 0.643
x2 = 0.0798 | 0.68
x2 = 0.0916 | 0.708
x2 = 0.1239 | 0.784
x2 = 0.1624 | 0.89
x2 = 0.2002 | 0.999
x2 = 0.231 | 1.097
x2 = 0.268 | 1.224
x2 = 0.2998 | 1.339
x2 = 0.3306 | 1.46
x2 = 0.3622 | 1.598
x2 = 0.4019 | 1.789
x2 = 0.4263 | 1.914
x2 = 0.4614 | 2.087
x2 = 0.5031 | 2.305
x2 = 0.54 | 2.492
x2 = 0.6007 | 2.81
x2 = 0.6745 | 3.232
x2 = 0.7406 | 3.618
x2 = 0.7898 | 3.928
x2 = 0.8221 | 4.116
x2 = 0.8567 | 4.332
x2 = 0.8875 | 4.525
x2 = 0.9174 | 4.722
x2 = 0.9489 | 4.919
x2 = 0.9678 | 5.031

CCCCC(=O)[O-].CC[NH+](CC)CCO + CCCCn1cc[n+](C)c1.COP(=O)([O-])OC
Details | viscosity [mPa·s]
298.15 K, 101 kPa, x1 = 0.1018 | 415.5

CCCCn1cc[n+](C)c1.COP(=O)([O-])OC + CCCCn1cc[n+](C)c1.O=S(=O)([N-]S(=O)(=O)C(F)(F)F)C(F)(F)F
Details | viscosity [mPa·s]
298.15 K, 100 kPa, x2 = 0.25 | 432.5

CC(O)CO (stereo not drawn) + CCCO
313 K, 101 kPa
Details | viscosity [mPa·s]
x1 = 0.1 | 1.9
x1 = 0.3 | 2.9
x1 = 0.5 | 4.8
x1 = 0.7 | 8.3
x1 = 0.9 | 15

ClC=C(Cl)Cl + CCCO
viscosity [mPa·s]
Details | x1 = 0.0848 | x1 = 0.1725 | x2 = 0.024 | x2 = 0.1062 | x2 = 0.253 | x2 = 0.3927 | x2 = 0.5454 | x2 = 0.6998 | x2 = 0.9543
298.15 K, 101.3 kPa | 1.705 | 1.485 | – | – | – | – | – | – | –
303.15 K, 101 kPa | – | – | 0.598 | 0.692 | 0.86 | 1.019 | 1.193 | 1.37 | 1.537
313.15 K, 101 kPa | – | – | 0.55 | 0.617 | 0.735 | 0.848 | 0.97 | 1.095 | 1.219
323.15 K, 101 kPa | – | – | 0.487 | 0.539 | 0.634 | 0.722 | 0.82 | 0.919 | 1.018

NC1CCCCC1 + CCCO
viscosity [mPa·s], 101 kPa
Details | 293.15 K | 298.15 K | 303.15 K
x1 = 0.0549 | 2.253 | 2.004 | 1.773
x1 = 0.102 | 2.29 | 2.036 | 1.803
x1 = 0.1983 | 2.392 | 2.12 | 1.871
x1 = 0.3117 | 2.512 | 2.213 | 1.946
x1 = 0.3529 | 2.548 | 2.241 | 1.968
x1 = 0.4031 | 2.578 | 2.266 | 1.985
x1 = 0.4387 | 2.588 | 2.274 | 1.996
x1 = 0.4926 | 2.589 | 2.271 | 1.999
x1 = 0.5491 | 2.568 | 2.261 | 1.992
x1 = 0.6111 | 2.534 | 2.229 | 1.964
x1 = 0.6604 | 2.485 | 2.19 | 1.928
x1 = 0.704 | 2.454 | 2.168 | 1.91
x1 = 0.7984 | 2.349 | 2.078 | 1.837
x1 = 0.8844 | 2.241 | 1.991 | 1.766
x1 = 0.9389 | 2.197 | 1.955 | 1.735

O=C1CCCC1 + CCCO
303.15 K, 101 kPa
Details | viscosity [mPa·s]
x1 = 0.1001 | 1.333
x1 = 0.2566 | 1.091
x1 = 0.4203 | 0.974
x1 = 0.5821 | 0.922
x1 = 0.7382 | 0.915
x1 = 0.8967 | 0.935

CC(O)CO (stereo not drawn) + CCO
Details | viscosity [mPa·s]
298.15 K, 101 kPa, x1 = 0.1 | 1.55
298.15 K, 101 kPa, x1 = 0.2 | 2.215
298.15 K, 101 kPa, x1 = 0.3 | 3.185
298.15 K, 101 kPa, x1 = 0.4 | 4.612
298.15 K, 101 kPa, x1 = 0.5 | 6.698
298.15 K, 101 kPa, x1 = 0.6 | 9.706
298.15 K, 101 kPa, x1 = 0.7 | 14.06
298.15 K, 101 kPa, x1 = 0.8 | 20.27
298.15 K, 101 kPa, x1 = 0.9 | 30.07
303 K, 100 kPa, x1 = 0.6 | 6.734
308 K, 100 kPa, x1 = 0.6 | 5.729
308.15 K, 101 kPa, x1 = 0.1 | 1.24
308.15 K, 101 kPa, x1 = 0.2 | 1.719
308.15 K, 101 kPa, x1 = 0.3 | 2.409
308.15 K, 101 kPa, x1 = 0.4 | 3.377
308.15 K, 101 kPa, x1 = 0.5 | 4.699
308.15 K, 101 kPa, x1 = 0.6 | 6.604
308.15 K, 101 kPa, x1 = 0.7 | 9.261
308.15 K, 101 kPa, x1 = 0.8 | 12.96
308.15 K, 101 kPa, x1 = 0.9 | 18.15
313 K, 100 kPa, x1 = 0.6 | 5.069
318 K, 100 kPa, x1 = 0.6 | 4.427
318.15 K, 101 kPa, x1 = 0.1 | 0.9282
318.15 K, 101 kPa, x1 = 0.2 | 1.317
318.15 K, 101 kPa, x1 = 0.3 | 1.854
318.15 K, 101 kPa, x1 = 0.4 | 2.576
318.15 K, 101 kPa, x1 = 0.5 | 3.527
318.15 K, 101 kPa, x1 = 0.6 | 4.797
318.15 K, 101 kPa, x1 = 0.7 | 6.46
318.15 K, 101 kPa, x1 = 0.8 | 8.621
318.15 K, 101 kPa, x1 = 0.9 | 11.43

ClC=C(Cl)Cl + CCO
viscosity [mPa·s], 101.33 kPa
Details | x2 = 0.15 | x2 = 0.3 | x2 = 0.45 | x2 = 0.6 | x2 = 0.75 | x2 = 0.9
293.15 K | 0.6368 | 0.7027 | 0.7685 | 0.8344 | 0.9003 | 0.9601
303.15 K | 0.59 | 0.6477 | 0.7071 | 0.765 | 0.8177 | 0.8581
313.15 K | 0.521 | 0.569 | 0.6186 | 0.6692 | 0.7193 | 0.7593
